The record followed here is ChEMBL document CHEMBL4339248, “Secondary Metabolites Produced by Combined Culture of Penicillium crustosum and a Xylaria sp” (J Nat Prod, 2019).

What is called IC50 is the midpoint of a concentration-inhibition curve. What is called MIC is the lowest concentration found to suppress growth.

The test system of one assay is HL-60. Nature of the assay: Cytotoxicity in human HL60 cells assessed as reduction in cel viability incubated for 24 or 72 hrs by SRB or MTT assay. It counts as functional, cell-based. For orientation: Tetrazolium assays rely on reduction of a dye to a coloured formazan, in cell work by metabolically active cells.
In a further assay the test system is K562. Nature of the assay: Cytotoxicity in human K562 cells assessed as reduction in cel viability incubated for 24 or 72 hrs by SRB or MTT assay. It counts as functional, cell-based.
The next assay relates to Bel-7402. Nature of the assay: Cytotoxicity in human Bel7402 cells assessed as reduction in cel viability incubated for 24 or 72 hrs by SRB or MTT assay. The class given is functional, cell-based.
For another assay, the system named is HCT-116. The experiment in a line: Cytotoxicity in human HCT116 cells assessed as reduction in cel viability incubated for 24 or 72 hrs by SRB or MTT assay. The class given is functional, cell-based.
The subject of the next assay is A549. The experiment in a line: Cytotoxicity in human A549 cells assessed as reduction in cel viability incubated for 24 or 72 hrs by SRB or MTT assay. The class given is functional, cell-based.
The subject of another assay is HeLa. Nature of the assay: Cytotoxicity in human HeLa cells assessed as reduction in cel viability incubated for 24 or 72 hrs by SRB or MTT assay. It counts as functional, cell-based.
In the next assay the test system is L02. The experiment in a line: Cytotoxicity in human L02 cells assessed as reduction in cel viability incubated for 24 or 72 hrs by SRB or MTT assay. It counts as cell-based.
In a further assay the test system is MGC-803. Nature of the assay: Cytotoxicity in human MGC803 cells assessed as reduction in cel viability incubated for 24 or 72 hrs by SRB or MTT assay. The class given is functional, cell-based.
Assay [1] in a line: Cytotoxicity in human HO8910 cells assessed as reduction in cel viability incubated for 24 or 72 hrs by SRB or MTT assay. The class given is functional, cell-based. Particulars: HO-8910.
For a further assay, the system named is SH-SY5Y. Nature of the assay: Cytotoxicity in human SH-SY5Y cells assessed as reduction in cel viability incubated for 24 or 72 hrs by SRB or MTT assay. It counts as functional, cell-based.
A further assay deals with PC-3. Nature of the assay: Cytotoxicity in human PC3 cells assessed as reduction in cel viability incubated for 24 or 72 hrs by SRB or MTT assay. The class given is functional, cell-based.
A further assay deals with MDA-MB-231. The experiment in a line: Cytotoxicity in human MDA-MB-231 cells assessed as reduction in cel viability incubated for 24 or 72 hrs by SRB or MTT assay. The class given is functional, cell-based.
The next assay has as its system Penicillium crustosum. Nature of the assay: Antimicrobial activity against Penicillium crustosum PRB-2 assessed as inhibition of microbial growth at 25 ug/disk by disk diffusion test. The class given is functional, organism-based. On the technique in general: In agar diffusion tests the substance spreads into inoculated agar from a disc or well.
A further assay has as its system Xylaria sp. The experiment in a line: Antimicrobial activity against Xylaria sp. HDN13-249 assessed as inhibition of microbial growth at 25 ug/disk by disk diffusion test. The class given is functional.
Another assay has as its system Mycolicibacterium phlei. Nature of the assay: Antimicrobial activity against Mycobacterium phlei by BSAC standardized disc susceptibility testing method. The class given is functional.
For another assay, the system named is Bacillus subtilis. Nature of the assay: Antimicrobial activity against Bacillus subtilis by BSAC standardized disc susceptibility testing method. It counts as functional.
Another assay deals with Vibrio parahaemolyticus. Nature of the assay: Antimicrobial activity against Vibrio parahaemolyticus by BSAC standardized disc susceptibility testing method. The class given is functional.

Values after ≈ are worked out from the molar mass of the structure shown. Active and inactive are the calls of the source. The rule behind the calls is not given here. A value given as a limit tells only on which side of the number the result lay.

As to `CCCCC[C@H](O)CCCCCCCCCCCc1cc(O)cc(O)c1`, the IC50 in the assay with HL-60, with K562, with Bel-7402, in the assay on HCT-116, with A549 and with HeLa was above 30 µM each time. Moreover, the IC50 (in the assay with L02; with MGC-803; in assay [1]; in the assay on SH-SY5Y; with PC-3; with MDA-MB-231) was above 30 µM throughout. The “growth inhibition (GI)” value in the assay with Penicillium crustosum and in the assay on Xylaria sp. was “inactive” each time. Moreover, the MIC was 25 µM (≈ 9.11 µg/mL) in the assay with Mycolicibacterium phlei, above 200 µM against Bacillus subtilis and above 200 µM against Vibrio parahaemolyticus.
Turning to `CCCCC[C@@H](CCCCCCCCCCCc1cc(O)cc(O)c1C(=O)O)OS(=O)(=O)O`, the IC50 in the assay on HL-60, with K562, in the assay on Bel-7402, in the assay with HCT-116, with A549 and in the assay on HeLa was above 30 µM each time. Besides, the IC50 (with L02; in the assay with MGC-803; in [1]; in the assay on SH-SY5Y; with PC-3; in the assay with MDA-MB-231) was above 30 µM throughout. In addition, the “growth inhibition (GI)” value with Penicillium crustosum and with Xylaria sp. was “inactive” each time.
In the case of `O=C(O)c1cn(C2CC2)c2cc(N3CCNCC3)c(F)cc2c1=O` [CIPROFLOXACIN], the MIC against Mycolicibacterium phlei turned out to be 1.56 µM (≈ 0.517 µg/mL); against Bacillus subtilis it was 1.56 µM (≈ 0.517 µg/mL); against Vibrio parahaemolyticus it was 12.5 µM (≈ 4.14 µg/mL).
As for `CCCCC[C@H](O)CCCCCCCCCCCc1cc(O)cc(O)c1C(=O)O`, the IC50 in the assay with HL-60, in the assay on K562, in the assay with Bel-7402, in the assay with HCT-116, with A549 and in the assay on HeLa was above 30 µM throughout. For the same compound, the IC50 (with L02; with MGC-803; in [1]; with SH-SY5Y; with PC-3; with MDA-MB-231) was above 30 µM in each case. For the same compound, the “growth inhibition (GI)” value with Penicillium crustosum and in the assay on Xylaria sp. was “inactive” throughout. The MIC with Mycolicibacterium phlei was 6.25 µM (≈ 2.55 µg/mL); in the assay on Bacillus subtilis, above 200 µM; with Vibrio parahaemolyticus it was 12.5 µM (≈ 5.11 µg/mL).
